Results as given in PubChem BioAssay (NCI).
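Where inhibition never reached the appropriate level, the endpoint shown equals the highest concentration tested. Otherwise, values were interpolated linearly from a five-concentration, 48-hour dose response in 96-well plates. Abbreviation: GI50, concentration required for 50% inhibition of growth. At the TGI there is no net growth.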

Tests used:
Assay in all cases: NCI-60 cell line screen, 48 h
786-0 renal = system: 786-0 renal
A498 renal = system: A498 renal
A549 NSCLC = system: A549 NSCLC
ACHN renal = system: ACHN renal
BT-549 breast = system: BT-549 breast
CAKI-1 renal = system: CAKI-1 renal
CCRF-CEM leukemia = system: CCRF-CEM leukemia
COLO 205 colon = system: COLO 205 colon
DU-145 prostate = system: DU-145 prostate
EKVX NSCLC = system: EKVX NSCLC
HCC-2998 colon = system: HCC-2998 colon
HCT-116 colon = system: HCT-116 colon
HCT-15 colon = system: HCT-15 colon
HL-60(TB) leukemia = system: HL-60(TB) leukemia
HOP-62 NSCLC = system: HOP-62 NSCLC
HOP-92 NSCLC = system: HOP-92 NSCLC
HS 578T breast = system: HS 578T breast
HT29 colon = system: HT29 colon
IGROV1 ovarian = system: IGROV1 ovarian
K-562 leukemia = system: K-562 leukemia
LOX IMVI melanoma = system: LOX IMVI melanoma
M14 melanoma = system: M14 melanoma
MCF7 breast = system: MCF7 breast
MDA-MB-231 breast = system: MDA-MB-231 breast
MDA-MB-435 = system: MDA-MB-435
MOLT-4 leukemia = system: MOLT-4 leukemia
NCI-H226 lung = system: NCI-H226 lung
NCI-H23 lung = system: NCI-H23 lung
NCI-H460 lung = system: NCI-H460 lung
NCI-H522 lung = system: NCI-H522 lung
NCI/ADR-RES ovarian = system: NCI/ADR-RES ovarian
OVCAR-3 ovarian = system: OVCAR-3 ovarian
OVCAR-4 ovarian = system: OVCAR-4 ovarian
OVCAR-5 ovarian = system: OVCAR-5 ovarian
OVCAR-8 ovarian = system: OVCAR-8 ovarian
PC-3 prostate = system: PC-3 prostate
RPMI-8226 leukemia = system: RPMI-8226 leukemia
RXF 393 renal = system: RXF 393 renal
SF-268 CNS = system: SF-268 CNS
SF-295 CNS = system: SF-295 CNS
SF-539 CNS = system: SF-539 CNS
SK-MEL-2 melanoma = system: SK-MEL-2 melanoma
SK-MEL-28 melanoma = system: SK-MEL-28 melanoma
SK-MEL-5 melanoma = system: SK-MEL-5 melanoma
SK-OV-3 ovarian = system: SK-OV-3 ovarian
SN12C renal = system: SN12C renal
SNB-19 CNS = system: SNB-19 CNS
SNB-75 CNS = system: SNB-75 CNS
SR leukemia = system: SR leukemia
SW-620 colon = system: SW-620 colon
T-47D breast = system: T-47D breast
U251 CNS = system: U251 CNS
UACC-257 melanoma = system: UACC-257 melanoma
UACC-62 melanoma = system: UACC-62 melanoma
UO-31 renal = system: UO-31 renal

SMILES: C/C(=C1\C(=O)Nc2ccccc21)c1cccc(/C(C)=C2/C(=O)Nc3ccccc32)n1
- GI50 (786-0 renal): 17.3 µM
- TGI (786-0 renal): 89.6 µM
- GI50 (A498 renal): 4.44 µM
- TGI (A498 renal): 34.8 µM
- GI50 (A549 NSCLC): 7.38 µM
- TGI (A549 NSCLC): > 100 µM
- GI50 (ACHN renal): 8.56 µM
- TGI (ACHN renal): 48.1 µM
- GI50 (BT-549 breast): 5.43 µM
- TGI (BT-549 breast): 36.5 µM
- GI50 (CAKI-1 renal): 2.34 µM
- TGI (CAKI-1 renal): 24.3 µM
- GI50 (CCRF-CEM leukemia): 6.55 µM
- TGI (CCRF-CEM leukemia): > 100 µM
- GI50 (COLO 205 colon): 7.32 µM
- TGI (COLO 205 colon): > 100 µM
- GI50 (DU-145 prostate): 2.93 µM
- TGI (DU-145 prostate): > 100 µM
- GI50 (EKVX NSCLC): 0.692 µM
- TGI (EKVX NSCLC): 5.4 µM
- GI50 (HCC-2998 colon): 2.38 µM
- TGI (HCC-2998 colon): 5.7 µM
- GI50 (HCT-116 colon): 9.93 µM
- TGI (HCT-116 colon): > 100 µM
- GI50 (HCT-15 colon): 4.21 µM
- TGI (HCT-15 colon): 34.9 µM
- GI50 (HL-60(TB) leukemia): 16 µM
- TGI (HL-60(TB) leukemia): > 100 µM
- GI50 (HOP-62 NSCLC): 15.5 µM
- TGI (HOP-62 NSCLC): 74.1 µM
- GI50 (HOP-92 NSCLC): 15.7 µM
- TGI (HOP-92 NSCLC): 85.3 µM
- GI50 (HS 578T breast): 4.1 µM
- TGI (HS 578T breast): > 100 µM
- GI50 (HT29 colon): 8.09 µM
- TGI (HT29 colon): > 100 µM
- GI50 (IGROV1 ovarian): 35.6 µM
- TGI (IGROV1 ovarian): > 100 µM
- GI50 (K-562 leukemia): 4.35 µM
- TGI (K-562 leukemia): > 100 µM
- GI50 (LOX IMVI melanoma): 8.4 µM
- TGI (LOX IMVI melanoma): 31 µM
- GI50 (M14 melanoma): 6.84 µM
- TGI (M14 melanoma): > 100 µM
- GI50 (MCF7 breast): 3.74 µM
- TGI (MCF7 breast): > 100 µM
- GI50 (MDA-MB-231 breast): 11.5 µM
- TGI (MDA-MB-231 breast): 74.7 µM
- GI50 (MDA-MB-435): 2.57 µM
- TGI (MDA-MB-435): 13.4 µM
- GI50 (MOLT-4 leukemia): 6.95 µM
- TGI (MOLT-4 leukemia): > 100 µM
- GI50 (NCI-H226 lung): 4.53 µM
- TGI (NCI-H226 lung): 24.5 µM
- GI50 (NCI-H23 lung): 16.8 µM
- TGI (NCI-H23 lung): 60.5 µM
- GI50 (NCI-H460 lung): 5.08 µM
- TGI (NCI-H460 lung): > 100 µM
- GI50 (NCI-H522 lung): 9.59 µM
- TGI (NCI-H522 lung): 99.5 µM
- GI50 (NCI/ADR-RES ovarian): 4.93 µM
- TGI (NCI/ADR-RES ovarian): 44.8 µM
- GI50 (OVCAR-3 ovarian): 4.52 µM
- TGI (OVCAR-3 ovarian): 28.2 µM
- GI50 (OVCAR-4 ovarian): 43 µM
- TGI (OVCAR-4 ovarian): > 100 µM
- GI50 (OVCAR-5 ovarian): 48.4 µM
- TGI (OVCAR-5 ovarian): > 100 µM
- GI50 (OVCAR-8 ovarian): 6.39 µM
- TGI (OVCAR-8 ovarian): 76.8 µM
- GI50 (PC-3 prostate): 24.4 µM
- TGI (PC-3 prostate): > 100 µM
- GI50 (RPMI-8226 leukemia): 4.87 µM
- TGI (RPMI-8226 leukemia): > 100 µM
- GI50 (RXF 393 renal): 12.3 µM
- TGI (RXF 393 renal): 58.7 µM
- GI50 (SF-268 CNS): 7.42 µM
- TGI (SF-268 CNS): 71.8 µM
- GI50 (SF-295 CNS): 18.5 µM
- TGI (SF-295 CNS): 85.4 µM
- GI50 (SF-539 CNS): 2.49 µM
- TGI (SF-539 CNS): 7.99 µM
- GI50 (SK-MEL-2 melanoma): 63.4 µM
- TGI (SK-MEL-2 melanoma): > 100 µM
- GI50 (SK-MEL-28 melanoma): 31.5 µM
- TGI (SK-MEL-28 melanoma): > 100 µM
- GI50 (SK-MEL-5 melanoma): 5.67 µM
- TGI (SK-MEL-5 melanoma): 25.4 µM
- GI50 (SK-OV-3 ovarian): 26.2 µM
- TGI (SK-OV-3 ovarian): > 100 µM
- GI50 (SN12C renal): 15.6 µM
- TGI (SN12C renal): 54.7 µM
- GI50 (SNB-19 CNS): 23.1 µM
- TGI (SNB-19 CNS): > 100 µM
- GI50 (SNB-75 CNS): 40.2 µM
- TGI (SNB-75 CNS): > 100 µM
- GI50 (SR leukemia): 4.96 µM
- TGI (SR leukemia): > 100 µM
- GI50 (SW-620 colon): 7.69 µM
- TGI (SW-620 colon): > 100 µM
- GI50 (T-47D breast): 4.63 µM
- TGI (T-47D breast): > 100 µM
- GI50 (U251 CNS): 7.6 µM
- TGI (U251 CNS): > 100 µM
- GI50 (UACC-257 melanoma): 9.43 µM
- TGI (UACC-257 melanoma): 86 µM
- GI50 (UACC-62 melanoma): 4.56 µM
- TGI (UACC-62 melanoma): 23.2 µM
- GI50 (UO-31 renal): 24.5 µM
- TGI (UO-31 renal): > 100 µM
